One test deals with hyaluronic acid. The settings on record: ex vivo human skin model; cited from earlier work.
In test [1] the test system is 3T3-L1 adipocytes and J774 macrophages. The test can be described thus: Macrophage clustering on adipocytes. It counts as cell-based. The settings on record: for number of macrophages associated with adipocytes: FIG. 5A, ~100 adipocytes/condition. Here is the method:
3T3-L1 adipocytes were untreated or treated with TNF-alpha (˜25 nM) for 24 hours. One set of TNF-alpha treated adipocytes was also treated with hexapeptide-11 (0.1 mg/mL). One set of J774 macrophages was treated with hexapeptide-11 (0.1 mg/mL) for 24 hours. The macrophages were added to the adipocytes. After an 1 hour incubation, the cells were placed on ice and incubated with a fluorescently labeled Cholera toxin B subunit to label the cell surface of macrophages a fluorescent green. The cells were then fixed with 4% formaldehyde for 15 minutes and then incubated with LipidTox to label the lipid droplets within the adipocytes a fluorescent red color. Four conditions were performed: (1) J774 macrophages with untreated adipocytes; (2) J774 macrophages with TNF-alpha treated adipocytes; (3) J774 macrophages with TNF alpha treated adipocytes plus hexapeptide-11 in the 1 hour incubation of both cell types; and (4) peptide pretreated J774 macrophages with hexapeptide-11 pretreated TNF-alpha treated adipocytes incubated together in the presence of hexapeptide-11. Images taken with a 60× objective were analyzed by counting the number of macrophages associated with ˜100 adipocytes for each condition.

In the next test the test system is Dermal Fibroblasts. Kind of test: Gene expression in fibroblasts by quantitative-PCR. It counts as cell-based. As to conditions: 72 hours exposure, vs untreated control. On the procedure:
Gene expression in fibroblasts were measured following 72 hours of exposure to hexapeptide-11.
Dermal Fibroblasts were plated in cell culture media and allowed to grow to approximately 85-90% confluency following manufacturer's guidelines. Cells were harvested and plated at 10,000 cells per cm^2 in 6-well dishes cultured for 3 days. On the third day, confluency was estimated by microscopy and the cell culture media was replaced. The cells were treated with hexpapeptide-11 at a 100× concentration or control buffer without peptide. The time at initial exposure to the peptide is considered time, t=0. Treated and untreated control cells were harvested, counted and extracted for RNA at 24 hours, 48 hours, and 72 hours following t=0. Cell pellets and isolated RNA were stored at −80° C. until analysis by quantitative-PCR.
The 72-hour time point RNA samples (treated and untreated) were used for gene expression analysis. RNA was converted to first strand cDNA and analyzed by quantitative-PCR.

Results on three molecules are retold here after patent publication US11752084B2, “Methods for fat reduction or elimination of lipid droplets” (Alastin Skincare, Inc., priority 2017, dated 2023).

Regarding `CCCCCCCC(=O)CCc1ccc(O)c(OC)c1` [hydroxymethoxyphenyl decanone], in the test on hyaluronic acid, the “stimulation of dermal hyaluronic acid level versus placebo” value is 259% and the “stimulation of epidermal hyaluronic acid level versus placebo” value is reported as 198%.

In the case of “Phe-Val-Ala-Pro-Phe-Pro (FVAPFP) [hexapeptide-11]”, in test [1] (0.1 mg/mL, TNF-alpha treated adipocytes), the macrophage clustering result was “increase macrophage clustering”. The “number of macrophages associated with adipocytes” value in test [1] was “increased”. Besides, the adipocyte droplet breakdown result in test [1] (TNF-alpha and peptide treatments, FIG. 4 right panel) is “further adipocyte droplet breakdown”. Besides, in the test with Dermal Fibroblasts, the “Fold Change AMBRA1” value is listed as 3.59 fold, the “Fold Change ATG4A” value was 3.29 fold, the “Fold Change ATG5” value worked out at 2.00 fold and the “Fold Change CASP3” value turned out to be 2.24 fold. Also, in the test with Dermal Fibroblasts, the “Fold Change COL5A2” value is −65.65 fold, the “Fold Change IGF1” value is given as −901.80 fold, the “Fold Change MAPK14” value was −83.67 fold and the “Fold Change PDGFRA” value was −369.65 fold. In addition, in the test on Dermal Fibroblasts, the “Fold Change PSMB5” value turned out to be 2.56 fold, the “Fold Change SOD3” value is given as −101.59 fold and the “Fold Change TNF” value was −92.41 fold.

As to TNF-alpha [reference compound], in test [1], the “number of macrophages associated with adipocytes” value is “greatly increased”.
